According to patent US20240336642A1 (The General Hospital Corporation, priority 2021, published 2024):

Columns and labels:
[1] = target: h12/15-LOX (Homo sapiens (Human), UniProt P16050); assay: 12/15-LOX enzyme inhibition IC50 assay (Examples 1 and 2); assay type: biochemical
Procedure: Enzyme was then added to the cuvettes. […] The % inhibition for each test compound concentration were calculated as follows: […]

[2] = Aqueous solubility of exemplified compounds (Example 3); assay type: physicochemical; conditions: aqueous solubility
[3] = Metabolic stability of exemplified compounds (Example 4); assay type: in vitro ADME
[4] = target: Human 12/15-LOX E. coli (Homo sapiens (Human), UniProt P16050); assay: Human 12/15-LOX E. coli IC50; assay type: biochemical
Human 12/15-LOX E. coli, sequence (P16050 whole entry): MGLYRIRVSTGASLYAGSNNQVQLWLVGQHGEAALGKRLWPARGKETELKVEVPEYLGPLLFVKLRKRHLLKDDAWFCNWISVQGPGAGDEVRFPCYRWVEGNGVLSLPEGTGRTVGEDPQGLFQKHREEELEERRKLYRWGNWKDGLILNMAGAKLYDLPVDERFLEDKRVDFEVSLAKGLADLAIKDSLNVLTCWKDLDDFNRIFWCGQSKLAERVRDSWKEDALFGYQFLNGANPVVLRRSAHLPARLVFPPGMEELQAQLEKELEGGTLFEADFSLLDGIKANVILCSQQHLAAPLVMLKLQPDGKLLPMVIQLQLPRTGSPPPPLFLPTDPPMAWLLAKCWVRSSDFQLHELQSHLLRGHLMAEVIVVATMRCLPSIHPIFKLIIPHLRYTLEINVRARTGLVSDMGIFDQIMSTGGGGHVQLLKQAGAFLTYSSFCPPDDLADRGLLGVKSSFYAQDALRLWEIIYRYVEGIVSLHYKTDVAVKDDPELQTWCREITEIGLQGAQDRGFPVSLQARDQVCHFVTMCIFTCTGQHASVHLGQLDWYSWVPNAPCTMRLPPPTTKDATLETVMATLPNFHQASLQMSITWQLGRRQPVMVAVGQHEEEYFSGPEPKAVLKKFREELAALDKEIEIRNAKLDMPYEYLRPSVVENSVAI

[5] = target: Human 12/15-LOX HEK (Homo sapiens (Human), UniProt P16050); assay: Human 12/15-LOX HEK EC50; assay type: cell-based
Human 12/15-LOX HEK, sequence (P16050 whole entry): as above

[6] = tested on: Mouse HT22; assay: Mouse HT22 EC50; assay type: cell-based; conditions: HT-22
[7] = tested on: Rat Primary Neuron; assay: Rat Primary Neuron EC50; assay type: cell-based
[8] = target: 12-LOX (Homo sapiens (Human), UniProt P18054); assay: Selectivity versus 12-LOX; assay type: biochemical
12-LOX, sequence (P18054 whole entry): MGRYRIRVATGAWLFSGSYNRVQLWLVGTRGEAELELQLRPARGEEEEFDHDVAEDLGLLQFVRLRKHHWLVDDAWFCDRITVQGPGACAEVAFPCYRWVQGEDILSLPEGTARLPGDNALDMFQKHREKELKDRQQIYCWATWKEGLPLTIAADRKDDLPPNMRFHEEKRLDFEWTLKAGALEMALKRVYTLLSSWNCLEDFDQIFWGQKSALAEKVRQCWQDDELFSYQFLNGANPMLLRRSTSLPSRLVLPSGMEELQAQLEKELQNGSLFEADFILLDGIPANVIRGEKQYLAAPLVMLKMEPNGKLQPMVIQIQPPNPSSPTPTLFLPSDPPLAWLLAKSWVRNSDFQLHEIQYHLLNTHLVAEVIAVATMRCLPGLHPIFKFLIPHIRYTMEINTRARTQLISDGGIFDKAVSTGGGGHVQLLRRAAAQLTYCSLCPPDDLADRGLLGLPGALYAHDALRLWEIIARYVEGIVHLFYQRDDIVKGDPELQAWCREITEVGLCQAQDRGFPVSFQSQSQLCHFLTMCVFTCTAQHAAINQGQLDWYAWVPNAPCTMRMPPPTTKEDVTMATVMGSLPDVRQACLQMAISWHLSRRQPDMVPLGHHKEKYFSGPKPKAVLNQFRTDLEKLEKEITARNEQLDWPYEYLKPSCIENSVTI

[9] = target: 5-LOX (Homo sapiens (Human), UniProt P09917); assay: Selectivity versus 5-LOX; assay type: biochemical
5-LOX, sequence (P09917 whole entry): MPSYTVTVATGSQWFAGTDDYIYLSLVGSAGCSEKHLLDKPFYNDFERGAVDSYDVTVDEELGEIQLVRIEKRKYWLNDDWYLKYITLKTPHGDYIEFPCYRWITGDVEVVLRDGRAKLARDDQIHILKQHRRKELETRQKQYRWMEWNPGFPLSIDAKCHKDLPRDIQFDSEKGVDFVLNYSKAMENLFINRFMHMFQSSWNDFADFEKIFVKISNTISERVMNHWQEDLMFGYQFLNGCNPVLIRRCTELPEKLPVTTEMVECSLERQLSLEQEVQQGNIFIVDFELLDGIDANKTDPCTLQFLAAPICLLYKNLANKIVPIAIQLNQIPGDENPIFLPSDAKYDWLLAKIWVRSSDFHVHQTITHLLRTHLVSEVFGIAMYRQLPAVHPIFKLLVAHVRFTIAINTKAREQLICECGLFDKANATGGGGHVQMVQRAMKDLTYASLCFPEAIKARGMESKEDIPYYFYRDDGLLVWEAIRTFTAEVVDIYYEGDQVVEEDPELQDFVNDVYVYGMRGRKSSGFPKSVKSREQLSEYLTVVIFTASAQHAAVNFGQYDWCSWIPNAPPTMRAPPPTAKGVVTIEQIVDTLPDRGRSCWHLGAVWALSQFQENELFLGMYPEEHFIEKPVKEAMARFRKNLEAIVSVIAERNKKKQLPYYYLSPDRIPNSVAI

[10] = tested on: COX-1; assay: Selectivity versus COX-1; assay type: biochemical
[11] = target: COX-2 (Homo sapiens (Human), UniProt P35354); assay: Selectivity versus COX-2; assay type: biochemical
COX-2, sequence (P35354 18-604): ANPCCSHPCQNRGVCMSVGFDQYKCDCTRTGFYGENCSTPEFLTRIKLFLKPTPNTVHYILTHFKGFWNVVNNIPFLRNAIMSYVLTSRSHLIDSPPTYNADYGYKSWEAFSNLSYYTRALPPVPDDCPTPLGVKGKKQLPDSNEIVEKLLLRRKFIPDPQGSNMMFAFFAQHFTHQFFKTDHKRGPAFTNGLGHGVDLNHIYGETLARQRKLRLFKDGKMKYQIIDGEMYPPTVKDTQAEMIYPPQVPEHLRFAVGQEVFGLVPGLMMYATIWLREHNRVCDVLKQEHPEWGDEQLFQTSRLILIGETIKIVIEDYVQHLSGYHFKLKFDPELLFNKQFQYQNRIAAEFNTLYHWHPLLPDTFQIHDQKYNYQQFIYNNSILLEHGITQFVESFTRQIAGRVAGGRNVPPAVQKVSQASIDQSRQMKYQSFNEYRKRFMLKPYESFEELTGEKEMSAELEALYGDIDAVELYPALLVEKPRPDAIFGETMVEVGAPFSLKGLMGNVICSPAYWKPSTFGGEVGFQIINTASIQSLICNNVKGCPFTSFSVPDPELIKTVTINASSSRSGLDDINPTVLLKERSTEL

[12] = tested on: experimental stroke model in mice (MCAO); assay: Long-term outcome after MCAO: Garcia score; assay type: in vivo, mouse; conditions: 40 mg/kg i.v. 2 hours post reperfusion
Procedure: (§1) Long-term outcome experiment: 40 mg/kg cmpd. 1 delivered I.V. 2 hours post reperfusion, same as short term, compared to vehicle (10% solutol/90% PEG400). 45 mice operated, and 27 survived, mice were sacrificed on day 30.

[13] = tested on: experimental stroke model in mice (MCAO); assay: Long-term outcome after MCAO: corner test; assay type: in vivo, mouse; conditions: 40 mg/kg i.v. 2 hours post reperfusion
Procedure: as §1

[14] = tested on: experimental stroke model in mice (MCAO); assay: Long-term outcome after MCAO: foot fault test; assay type: in vivo, mouse; conditions: 40 mg/kg i.v. 2 hours post reperfusion
Procedure: as §1

[15] = tested on: experimental stroke model in mice (MCAO); assay: Long-term outcome after MCAO: adhesive (tape) removal test; assay type: in vivo, mouse; conditions: 40 mg/kg i.v. 2 hours post reperfusion
Procedure: as §1

[16] = tested on: experimental stroke model in mice (MCAO); assay: Long-term outcome after MCAO: Y maze; assay type: in vivo, mouse; conditions: 40 mg/kg i.v. 2 hours post reperfusion, versus vehicle
Procedure: as §1

[17] = tested on: SAH wild-type mice; assay: Subarachnoid hemorrhage (SAH) mouse model; assay type: in vivo; conditions: wild-type mice with SAH
Source text: The effect of the exemplified compounds (which are, e.g., inhibitors of 12/15-LOX as discussed herein) on treating bran injury after subarachnoid hemorrhage can be assessed in a mouse model as described, for example, in Gaberel et al, Stroke, 2019, 50, 520-523, which is incorporated herein by reference in its entirety. Subarachnoid hemorrhage (SAH) is a devastating form of stroke. It may lead to substantial brain injury. The mouse model to study the impact of 12/15-LOX inhibitors on subarachnoid hemorrhage includes C57Bl6 wild-type mice and Alox15 knockout mice. These mice are subjected to SAH using direct blood injection technique. […] Immunohistochemistry, brain edema, blood-brain barrier leakage and functional outcomes were assessed 1 and 3 days after SAH induction. […]
All animal experiments were performed following protocols approved by the Massachusetts General Hospital Institutional Animal Care and Use Committee in accordance with the National Institutes of Health Guide for the Care and Use of Laboratory Animals. […] Sample sizes were evaluated as follows: based on prior experience, coefficients of variation around 35% between mice are expected. […]
Except the mice used for IHC 24 h after SAH induction, all mice were assessed at 72 hours using a 4-point Neuroscore scale, a 18 point Neuroscore scale, and by evaluating spontaneous activity. […]

h12/15-LOX, sequence (P16050 whole entry): as the sequence (P16050 whole entry) above

CNc1oc(-c2cc(Cl)cc(Cl)c2Cl)nc1C#N [Compound 1, 5-(methylamino)-2-(2,3,5-trichlorophenyl) oxazole-4-carbonitrile]
IC50 [1]: 120 nM
Emax ([1]; h12/15-LOX, read-out: Max % inhibition): 94%
Sol [2]: + (“+” < 10 μM)
Extr (EH) ([3]; Human liver microsomes): ** (“**” 50-100%)
microsomal CLint ([3]; Human liver microsomes): 20 to 100 µL/min/mg
Extr (EH) ([3]; Mouse liver microsomes): ** (“**” 50-100%)
microsomal CLint ([3]; Mouse liver microsomes): 20 to 100 µL/min/mg
Extr (EH) ([3]; Rat liver microsomes): * (“*” <50%)
microsomal CLint ([3]; Rat liver microsomes): < 20 µL/min/mg
Human 12/15-LOX E. coli % max [4]: 88%
IC50 [4]: 110 nM
EC50 [5]: 920 nM
EC50 [6]: 5000 nM
EC50 [7]: 9500 nM
selectivity over 12-LOX [8]: > 400 fold
selectivity over 5-LOX [9]: > 400 fold
selectivity over COX-1 [10]: > 400 fold
selectivity over COX-2 [11]: > 400 fold
Garcia score, improvement compared to vehicle treatment ([12]; Day 3): 23.8%
Garcia score, improvement compared to vehicle treatment ([12]; Week 4): 68.5%
Corner test, improvement compared to vehicle treatment ([13]; Week 1): 68.7%
Corner test, improvement compared to vehicle treatment ([13]; Week 4): 75.4%
Foot fault test, improvement compared to vehicle treatment ([14]; Week 1): 61.7%
Foot fault test, improvement compared to vehicle treatment ([14]; Week 4): 77.0%
Adhesive (tape) removal test, improvement compared to vehicle treatment ([15]; Week 1): 65.6%
Adhesive (tape) removal test, improvement compared to vehicle treatment ([15]; Week 4): 93.3%
Y maze % alternation [16]: no significant differences
Y maze entry number [16]: no difference between treatment groups
Neuronal cell death after SAH [17]: reduced
